Measured values reported in article PMC10021017 (Journal of the American Chemical Society, 2023).
Each block holds one molecule with its values, some of them ahead of it.

Legend:
[1] = target: T1, HydB (HydABCTk, electron-bifurcating [FeFe]-hydrogenase) (Thermoanaerobacter kivui, UniProt A0A097ATG4); test: cryoEM; type: binding
T1 sequence (A0A097ATG4 1-630): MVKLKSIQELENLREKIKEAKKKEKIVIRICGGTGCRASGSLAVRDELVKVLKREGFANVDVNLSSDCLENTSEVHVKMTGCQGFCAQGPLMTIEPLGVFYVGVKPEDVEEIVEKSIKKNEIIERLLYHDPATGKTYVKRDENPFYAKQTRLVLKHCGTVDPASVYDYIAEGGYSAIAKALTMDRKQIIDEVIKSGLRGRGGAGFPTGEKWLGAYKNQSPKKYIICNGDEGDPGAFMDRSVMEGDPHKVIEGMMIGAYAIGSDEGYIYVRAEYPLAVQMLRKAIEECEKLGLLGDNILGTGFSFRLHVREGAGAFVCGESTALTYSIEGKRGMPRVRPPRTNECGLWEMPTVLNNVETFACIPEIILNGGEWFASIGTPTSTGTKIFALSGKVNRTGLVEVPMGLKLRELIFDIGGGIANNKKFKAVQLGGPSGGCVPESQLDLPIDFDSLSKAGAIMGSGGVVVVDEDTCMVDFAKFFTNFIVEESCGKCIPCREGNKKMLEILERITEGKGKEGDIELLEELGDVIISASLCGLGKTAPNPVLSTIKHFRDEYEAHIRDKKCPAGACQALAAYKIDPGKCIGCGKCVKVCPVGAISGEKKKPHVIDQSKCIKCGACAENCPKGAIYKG
T1 sequence (A0A097ATG3 1-571 partner): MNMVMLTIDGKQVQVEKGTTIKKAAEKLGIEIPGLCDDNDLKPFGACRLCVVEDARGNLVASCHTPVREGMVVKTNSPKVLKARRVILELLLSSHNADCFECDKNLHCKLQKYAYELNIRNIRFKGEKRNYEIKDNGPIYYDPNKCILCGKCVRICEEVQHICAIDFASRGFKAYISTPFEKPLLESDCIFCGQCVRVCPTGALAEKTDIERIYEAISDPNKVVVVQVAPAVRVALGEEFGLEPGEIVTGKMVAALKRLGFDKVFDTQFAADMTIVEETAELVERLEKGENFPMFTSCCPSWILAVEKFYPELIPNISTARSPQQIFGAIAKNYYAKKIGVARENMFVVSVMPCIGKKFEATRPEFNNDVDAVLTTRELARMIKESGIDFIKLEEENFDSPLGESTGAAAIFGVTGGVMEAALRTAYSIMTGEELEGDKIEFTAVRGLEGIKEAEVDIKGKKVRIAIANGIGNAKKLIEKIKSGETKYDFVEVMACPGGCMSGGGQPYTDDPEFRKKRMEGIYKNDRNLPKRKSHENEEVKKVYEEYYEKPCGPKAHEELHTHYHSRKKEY
T1 sequence (A0A097ATI0 1-170 partner): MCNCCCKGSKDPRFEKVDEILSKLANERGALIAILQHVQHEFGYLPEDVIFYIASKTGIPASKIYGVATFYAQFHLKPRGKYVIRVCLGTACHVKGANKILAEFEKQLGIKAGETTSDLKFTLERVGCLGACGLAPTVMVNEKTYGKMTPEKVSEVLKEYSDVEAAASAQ

HydB (ΔB2-HydABCTk) = HydB (ΔB2-HydABCTk) (Thermoanaerobacter kivui, UniProt A0A097ATG4, C82G/C86G)
[2] = target: HydABC heterotrimer (protomer) of the electron-bifurcating [FeFe]-hydrogenase from Thermoanaerobacter kivui (Thermoanaerobacter kivui); test: cryo-EM structure
[3] = target: T2, HydB subunit of the electron-bifurcating [FeFe]-hydrogenase HydABC from Thermoanaerobacter kivui (Thermoanaerobacter kivui, UniProt A0A097ATG4 1-630); test: cryo-EM structure
T2 sequence: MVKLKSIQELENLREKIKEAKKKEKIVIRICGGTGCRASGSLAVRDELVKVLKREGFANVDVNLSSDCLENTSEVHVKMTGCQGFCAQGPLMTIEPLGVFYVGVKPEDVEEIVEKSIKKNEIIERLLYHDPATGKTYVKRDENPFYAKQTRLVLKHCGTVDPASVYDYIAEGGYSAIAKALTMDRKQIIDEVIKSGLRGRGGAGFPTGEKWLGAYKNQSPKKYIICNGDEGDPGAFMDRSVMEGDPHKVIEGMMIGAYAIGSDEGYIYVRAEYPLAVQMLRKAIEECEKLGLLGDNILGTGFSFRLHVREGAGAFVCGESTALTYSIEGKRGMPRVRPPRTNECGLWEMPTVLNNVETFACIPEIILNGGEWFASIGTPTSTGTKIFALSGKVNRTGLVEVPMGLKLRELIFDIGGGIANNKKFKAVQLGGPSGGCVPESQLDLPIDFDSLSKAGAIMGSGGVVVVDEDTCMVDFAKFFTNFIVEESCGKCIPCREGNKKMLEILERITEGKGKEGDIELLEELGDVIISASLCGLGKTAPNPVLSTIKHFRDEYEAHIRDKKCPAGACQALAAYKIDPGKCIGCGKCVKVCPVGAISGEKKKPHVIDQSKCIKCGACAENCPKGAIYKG

stoichiometry N [2]: 2
Molecule: HydABC heterotrimer (protomer) of the electron-bifurcating [FeFe]-hydrogenase from Thermoanaerobacter kivui (from UniProt A0A097ATG4 1-630; A0A097ATI0 1-170) (complex)

binding result [3]: binds
B1: HydC subunit of the electron-bifurcating [FeFe]-hydrogenase HydABC from Thermoanaerobacter kivui (natural protein)
chain: MCNCCCKGSKDPRFEKVDEILSKLANERGALIAILQHVQHEFGYLPEDVIFYIASKTGIPASKIYGVATFYAQFHLKPRGKYVIRVCLGTACHVKGANKILAEFEKQLGIKAGETTSDLKFTLERVGCLGACGLAPTVMVNEKTYGKMTPEKVSEVLKEYSDVEAAASAQ

Second part, the molecule before the results:

Molecule: Cc1cc2nc3c(=O)[nH]c(=O)nc-3n(C[C@H](O)[C@H](O)[C@H](O)COP(=O)(O)O)c2cc1C [FMN]
cryoEM (reduced 3.12 A; oxidized 3.49 A, 8BEW); TLC of bound flavin [1]: modified Rossmann fold with four (instead of six) β-sheets that noncovalently bind the FMN cofactor in a solvent-accessible cavity

Molecule: NC(=O)c1ccc[n+]([C@@H]2O[C@H](COP(=O)(O)OP(=O)(O)OC[C@H]3O[C@@H](n4cnc5c(N)ncnc54)[C@H](OP(=O)(O)O)[C@@H]3O)[C@@H](O)[C@H]2O)c1 [NADP^+]
Kd (HydB (ΔB2-HydABCTk)): 65 to 71 µM
